Experimental data as given in ChEMBL document CHEMBL4330174, “Allosteric mGluR3 Modulators for the Treatment of Psychiatric Disorders” (ACS Med Chem Lett, 2019).

target: Metabotropic glutamate receptor 3 (Homo sapiens, UniProt Q14832); assay: Positive allosteric modulation of human mGluR3 expressed in HEK293 cells assessed as increase in glutamate-induced calcium mobilization preincubated for 10 mins followed by glutamate addition and measured for 3 mins by Fluo4-AM dye based FLIPR assay; format: functional, cell-based
Sequence (Q14832 whole entry): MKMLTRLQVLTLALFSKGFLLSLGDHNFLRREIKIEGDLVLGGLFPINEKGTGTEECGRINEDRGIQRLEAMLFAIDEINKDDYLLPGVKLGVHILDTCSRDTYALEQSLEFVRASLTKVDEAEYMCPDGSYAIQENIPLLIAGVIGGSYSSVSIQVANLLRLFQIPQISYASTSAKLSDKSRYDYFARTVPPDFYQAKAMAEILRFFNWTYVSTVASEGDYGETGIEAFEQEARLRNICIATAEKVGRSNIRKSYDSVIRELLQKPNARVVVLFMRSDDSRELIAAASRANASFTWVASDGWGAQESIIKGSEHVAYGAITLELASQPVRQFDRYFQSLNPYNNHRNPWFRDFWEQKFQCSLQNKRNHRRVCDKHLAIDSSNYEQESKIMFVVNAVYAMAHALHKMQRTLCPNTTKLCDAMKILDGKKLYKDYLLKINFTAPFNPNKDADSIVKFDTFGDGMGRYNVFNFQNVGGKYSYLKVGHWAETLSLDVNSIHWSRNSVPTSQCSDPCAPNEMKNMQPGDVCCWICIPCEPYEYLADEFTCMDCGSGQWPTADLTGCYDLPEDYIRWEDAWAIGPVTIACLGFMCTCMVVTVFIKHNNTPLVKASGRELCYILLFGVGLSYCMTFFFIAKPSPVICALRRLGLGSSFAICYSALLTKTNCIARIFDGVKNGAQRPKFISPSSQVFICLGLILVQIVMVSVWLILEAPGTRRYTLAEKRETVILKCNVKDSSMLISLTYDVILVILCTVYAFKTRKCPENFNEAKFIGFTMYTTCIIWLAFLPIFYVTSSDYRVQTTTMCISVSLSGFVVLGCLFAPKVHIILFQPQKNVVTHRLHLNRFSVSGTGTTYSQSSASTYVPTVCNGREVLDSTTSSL

| SMILES | EC50 [µM] |
| --- | --- |
| COc1ccc2c(n1)C(=O)N(C)Cc1ccc(-c3ccc(F)nc3)cc1-2 | < 0.1 |
| CN1C(=O)c2ncccc2-c2cc(-c3ccc(F)cn3)ccc2C12CC2 | < 0.1 |
| COCn1cc2c(n1)C(=O)N(C)C1(CC1)c1ccc(-c3ccc(F)nc3)cc1-2 | < 0.1 |
| COCn1cc2c(n1)C(=O)N(C)Cc1ccc(-c3ccc(F)cn3)cc1-2 | 0.1 to 1 |
| CCn1cc2c(n1)C(=O)N(C)Cc1ccc(-c3cccnc3C)cc1-2 | 0.1 to 1 |

Other lines, results leading:

| EC50 [µM] | SMILES |
| --- | --- |
| < 0.1 | CN1C(=O)c2ncccc2-c2cc(-c3ccc(F)nc3)ccc2C12CC2 |
| < 0.1 | COc1ccc2c(n1)C(=O)N(C)C1(CC1)c1ccc(-c3ccc(F)nc3)cc1-2 |
| < 0.1 | CN1C(=O)c2cccn2-c2cc(-c3ccc(F)nc3)ccc2C12CCC2 |
